Each compound was assayed on MMP-13 (assay: MMP-13 Production Inhibition Test). Conditions: Homo sapiens; 30 μmol/L; SW1353 cells stimulated with IL-1β 10 ng/mL; MMP-13 in culture supernatant by ELISA 16 hours after stimulation; read-out: Inhibition rate (%) at 30 μmol/L.
Assay type: cell-based, human
Method: MMP-13 Production Inhibition Test
6.8×10^3 human cartilage derived cell line SW1353 cells were suspended in 100 μL of Dulbecco modified Eagle's medium supplemented with 10% fetal calf serum, plated on 96-well plates and cultured for 3 days. After the culture medium was changed to Dulbecco modified Eagle's medium containing 0.2% lactalbumin hydrolysate and the cells were cultured for 6 hours, […] were added and then IL-1β was added to obtain the final concentration of 10 ng/mL 1 hour later. 16 hours after the stimulation, supernatant was collected and the amount of MMP-13 in the culture supernatant was determined with an ELISA kit (Amersham). The inhibition rate was calculated from the amount of MMP-13 in the presence of a test compound assuming that the amount of MMP-13 was 100% in the absence of the test compound.
O=C(Nc1cc(CCc2ccccc2)ccc1C(=O)O)c1ccccc1 [Example 25, 2-(benzamido)-4-phenethylbenzoic acid] showed an inhibition at 30 µM of 86%. O=C(Nc1cc(-c2ccccc2)ccc1C(=O)O)c1cc(-c2ccccc2)ncn1 [Example 349, 4-Phenyl-2-(6-phenylpyrimidine-4-carboxamido)benzoic acid] was tested, and the inhibition at 30 µM was 95%. In the case of O=C(Nc1cc(Oc2ccccc2)ccc1C(=O)O)c1ccc2c(c1)OCO2 [Example 80, 2-(Benzo[1,3]dioxole-5-carboxamido)-4-phenoxybenzoic acid], the inhibition at 30 µM is reported as 92%. Compound O=C(Nc1cc(-c2cccs2)ccc1C(=O)O)c1ccccc1 [Example 7, 2-(Benzamido)-4-(thiophen-2-yl)benzoic acid] has an inhibition at 30 µM of 91%. For Cc1ccc(-c2ccc(C(=O)O)c(NC(=O)c3ccccc3)c2)cc1Cl [Example 426, 2-(benzamido)-4-(3-chloro-4-methylphenyl)benzoic acid], the inhibition at 30 µM was 98%. Compound O=C(Nc1cc(CCc2ccc(OC(F)(F)F)cc2)ccc1C(=O)O)c1ccccc1 [Example 138, 2-(Benzamido)-4-(2-(4-(trifluoromethoxy)phenyl)ethyl)benzoic acid] has an inhibition at 30 µM of 95%. Work on O=C(Nc1cc(CCc2ccccc2)ccc1C(=O)O)c1ccc(F)c(F)c1 [Example 433, 2-(3,4-Difluorobenzamido)-4-phenethylbenzoic acid] yielded an inhibition at 30 µM of 98%. Cc1cccc(C(=O)Nc2cc(CCc3ccccc3)ccc2C(=O)O)c1C [Example 262, 2-(2,3-Dimethylbenzamido)-4-phenethylbenzoic acid] gave an inhibition at 30 µM of 93%. For O=C(C=Cc1ccccc1)Nc1cc(Oc2ccccc2)ccc1C(=O)O [Example 91, 2-(Cinnamamido)-4-phenoxybenzoic acid], the inhibition at 30 µM was 95%. Compound O=C(Nc1cc(-c2ccc(Cl)cc2)ccc1C(=O)O)c1ccccc1 [Example 212, 2-(Benzamido)-4-(4-chlorophenyl)benzoic acid] has an inhibition at 30 µM of 95%. With O=C(Nc1cc(/C=C/c2cccc3nsnc23)ccc1C(=O)O)c1ccccc1 [Example 146, 2-(Benzamido)-4-((E)-2-(2,1,3-benzothiadiazol-4-yl)vinyl)benzoic acid] the inhibition at 30 µM was 97%. For O=C(Nc1cc(OCc2ccccc2)ccc1C(=O)O)c1ccccc1 [Example 99, 2-(benzamido)-4-(benzyloxy)benzoic acid], the inhibition at 30 µM was 71%. With O=C(Nc1cc(Oc2ccccc2)ccc1C(=O)O)c1ccc(F)cc1 [Example 89, 2-(4-Fluorobenzamido)-4-phenoxybenzoic acid] the inhibition at 30 µM was 94%. Compound CC(=O)c1cccc(C(=O)Nc2cc(-c3ccccc3)ccc2C(=O)O)c1 [Example 514, 2-(3-Acetylbenzamido)-4-phenylbenzoic acid] has an inhibition at 30 µM of 91%. O=C(Nc1cc(-c2ccc(O)cc2)ccc1C(=O)O)c1ccccc1 [Example 243, 2-(benzamido)-4-(4-hydroxyphenyl)benzoic acid] gave an inhibition at 30 µM of 96%. In the case of COc1ccc(-c2ccc(C(=O)O)c(NC(=O)c3ccccc3)c2)cc1 [Example 22, 2-(Benzamido)-4-(4-methoxyphenyl)benzoic acid], the inhibition at 30 µM is reported as 81%. With COc1cccc(/C=C/c2ccc(C(=O)O)c(NC(=O)c3ccc4c(c3)OCO4)c2)c1 [Example 157, 2-(Benzo[1,3]dioxole-5-carboxamido)-4-((E)-2-(3-methoxyphenyl)vinyl)benzoic acid] the inhibition at 30 µM was 98%. O=C(Nc1cc(-c2ccccc2)ccc1C(=O)O)c1ccc(-n2cccc2)nc1 [Example 509, 4-Phenyl-2-(6-(1H-pyrrol-1-yl)pyridine-3-carboxamido) benzoic acid] was tested, and the inhibition at 30 µM was 77%. O=C(/C=C/c1cccc(Cl)c1)Nc1cc(-c2ccccc2)ccc1C(=O)O [Example 358, 2-((E)-3-(3-Chlorophenyl)acrylamido)-4-phenylbenzoic acid] was tested, and the inhibition at 30 µM was 99%. For O=C(Nc1cc(-c2ccccc2)ccc1C(=O)O)c1cccs1 [Example 301, 4-Phenyl-2-(thiophene-2-carboxamido)benzoic acid], the inhibition at 30 µM was 80%. O=C(Nc1cc(/C=C/c2ccc(F)cc2F)ccc1C(=O)O)c1ccccc1 [Example 141, 2-(benzamido)-4-((E)-2-(2,4-difluorophenyl)vinyl)benzoic acid] showed an inhibition at 30 µM of 95%. With O=C(Nc1cc(-c2cccc(OC(F)(F)F)c2)ccc1C(=O)O)c1ccccc1 [Example 234, 2-(Benzamido)-4-(3-(trifluoromethoxy)phenyl)benzoic acid] the inhibition at 30 µM was 99%. O=C(O)c1ccc(Oc2ccccc2)cc1NS(=O)(=O)c1ccccc1 [Example 88, 2-(Benzenesulfonamido)-4-phenoxybenzoic acid] gave an inhibition at 30 µM of 80%. In the case of Cc1cccc(C)c1Oc1ccc(C(=O)O)c(NC(=O)c2ccccc2)c1 [Example 564, 2-(Benzamido)-4-(2,6-dimethylphenoxy)benzoic acid], the inhibition at 30 µM is reported as 97%. Cc1cccc(Oc2ccc(C(=O)O)c(NC(=O)c3ccccc3)c2)c1C [Example 541, 2-(Benzamido)-4-(2,3-dimethylphenoxy)benzoic acid] was tested, and the inhibition at 30 µM was 97%. Compound O=C(Nc1cc(-c2c(F)cccc2F)ccc1C(=O)O)c1ccccc1 [Example 217, 2-(Benzamido)-4-(2,6-difluorophenyl)benzoic acid] has an inhibition at 30 µM of 68%. O=C(Nc1cc(Oc2ccccc2)ccc1C(=O)O)c1ccc(-n2cccc2)cc1 [Example 495, 4-phenoxy-2-(4-(1H-pyrrol-1-yl)benzamido)benzoic acid] was tested, and the inhibition at 30 µM was 99%. With O=C(Nc1cc(-c2ccc3c(c2)OCCO3)ccc1C(=O)O)c1ccccc1 [Example 15, 2-(Benzamido)-4-(2,3-dihydrobenzo[1,4]dioxin-6-yl)benzoic acid] the inhibition at 30 µM was 88%. With Cc1cccc(C(=O)Nc2cc(-c3ccc(F)cc3F)ccc2C(=O)O)c1C [Example 189, 4-(2,4-difluorophenyl)-2-(2,3-dimethylbenzamido)benzoic acid] the inhibition at 30 µM was 96%. O=C(Nc1cc(-c2ccc3c(c2)OCO3)ccc1C(=O)O)c1ccccc1 [Example 11, 2-(benzamido)-4-(benzo[1,3]dioxol-5-yl)benzoic acid] gave an inhibition at 30 µM of 92%. Compound O=C(Nc1cc(Oc2cccc(Cl)c2)ccc1C(=O)O)c1ccccc1 [Example 551, 2-(benzamido)-4-(3-chlorophenoxy)benzoic acid] has an inhibition at 30 µM of 86%.

The compounds below were run on DBA/1J mice (assay: Type II Collagen-induced Arthritis in Mice). Conditions: 30 mg/kg orally once a day from the 21st day to the 35th day; X-ray of the four limbs on the 36th day; male DBA/1J mice.
Assay type: in vivo
Method: Type II Collagen-induced Arthritis in Mice
Eight-week old male DBA/1J mice were used (Charles River Laboratories Japan Inc.). 4 mg/mL bovine type II collagen (Collagen Gijutsu Kenshukai) dissolved in 0.01 mol/L of acetic acid aqueous solution and an equal amount of Freund's complete adjuvant (Chondorex) containing 1 mg/mL of killed tuberculosis bacillus were added to prepare an emulsion, and 0.1 mL thereof was intradermally injected at the base of tail. Similar treatment was conducted on the 21st day to cause arthritis. The test compound was suspended in 0.5% methylcellulose aqueous solution, and 30 mg/kg was orally administered once a day from the 21st day to the 35th day. In the control group, 0.5% methylcellulose aqueous solution was administered in the same manner. The severity of arthritis was estimated by scoring at zero point for an animal without change; one point for an animal with swelling at the one or two finger joint or light swelling only at the carpal or tarsal joint; two points for an animal with severe swelling at the carpal or tarsal joint or with swelling at three or more finger joints; three points for an animal with severe swelling along the whole foreleg or hindleg and thus counting 12 points at the maximum for the four limbs as arthritis score. […] The inhibitory rate was determined by the following expression. […]
O=C(Nc1cc(CCc2ccccc2)ccc1C(=O)O)c1ccccc1 [Example 25, 2-(benzamido)-4-phenethylbenzoic acid] was tested, and the “inhibitory action on bone destruction (bone destruction score)” value was “exhibited inhibitory action”.

Same assay, conditions: 30 mg/kg orally once a day from the 21st day to the 35th day; male DBA/1J mice
For O=C(Nc1cc(CCc2ccccc2)ccc1C(=O)O)c1ccccc1 [Example 25, 2-(benzamido)-4-phenethylbenzoic acid], the “inhibitory action on arthritis (arthritis score)” value was “exhibited inhibitory action”.

Source: patent publication US7999132B2, “Anthranilic acid derivative or salt thereof” (Toyama Chemical Co., Ltd., priority 2004, dated 2011)
